From the supplement of paper PMC8671470

What was measured:
Conditions in all cases: 72 h
[1] = system: myeloid leukemia patient primary cells Pat.12; experiment: cell viability (% survival relative to DMSO control); higher = less cytotoxic
How it was run: (§1)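 Seventy compounds were pre-printed on 384-well plates at five tenfold concentrations between 1 and 10,000 nM, in duplicate. Thawed mononuclear cells purified by Ficoll from AML or CML patients were added at 10,000 cells/well in RPMI 1640 with 10% FBS for 72 h. Viability by CellTiter-Glo was normalised to DMSO and 10 μM proteasome-inhibitor wells. Where stated, area under the curve was taken from log-logistic fits made with the drc and PharmacoGx R packages, each fit having four parameters.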

[2] = system: myeloid leukemia patient primary cells Pat.13; experiment: as above
How it was run: as §1

[3] = system: myeloid leukemia patient primary cells Pat.14; experiment: as above
How it was run: as §1

[4] = system: myeloid leukemia patient primary cells Pat.15; experiment: as above
How it was run: as §1

[5] = system: myeloid leukemia patient primary cells Pat.2; experiment: as above
How it was run: as §1

[6] = system: myeloid leukemia patient primary cells Pat.8; experiment: as above
How it was run: as §1

[7] = system: myeloid leukemia patient primary cells Pat.10; experiment: area under dose-response curve (viability, 1 nM-10 uM) (fraction (0-1)); higher = more sensitive
Description: (§2)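 AUC (0–1, higher = more sensitive) of the 5-point dose–response (1 nM–10 µM, 72 h, CellTiter-Glo) in primary AML/CML patient mononuclear cells. 0.030103 is the floor for inactive compounds.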

[8] = system: myeloid leukemia patient primary cells Pat.11; experiment: as above
Description: as §2

[9] = system: myeloid leukemia patient primary cells Pat.12; experiment: as above
Description: as §2

[10] = system: myeloid leukemia patient primary cells Pat.13; experiment: as above
Description: as §2

[11] = system: myeloid leukemia patient primary cells Pat.14; experiment: as above
Description: as §2

[12] = system: myeloid leukemia patient primary cells Pat.15; experiment: as above
Description: as §2

[13] = system: myeloid leukemia patient primary cells Pat.1; experiment: as above
Description: as §2

[14] = system: myeloid leukemia patient primary cells Pat.2; experiment: as above
Description: as §2

[15] = system: myeloid leukemia patient primary cells Pat.3; experiment: as above
Description: as §2

[16] = system: myeloid leukemia patient primary cells Pat.4; experiment: as above
Description: as §2

[17] = system: myeloid leukemia patient primary cells Pat.5; experiment: as above
Description: as §2

[18] = system: myeloid leukemia patient primary cells Pat.7; experiment: as above
Description: as §2

[19] = system: myeloid leukemia patient primary cells Pat.8; experiment: as above
Description: as §2

[20] = system: myeloid leukemia patient primary cells Pat.9; experiment: as above
Description: as §2

[21] = system: HL-60; experiment: cell viability (% survival relative to DMSO control); higher = less cytotoxic
How it was run: (§3)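 HL-60 cells in RPMI 1640 with 10% FBS were rescreened against the full library on 384-well plates at five tenfold concentrations, 1–10,000 nM, in duplicate. Each screen was run with DMSO or 100 nM of one of three metabolic inhibitors, for 72 h at 37 °C, 5% CO2. Viability was read by CellTiter-Glo and normalised to DMSO and 10 μM proteasome-inhibitor wells. Where given, area under the curve came from four-parameter log-logistic fits (drc, PharmacoGx).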

[22] = system: myeloid leukemia patient primary cells Pat.6; experiment: area under dose-response curve (viability, 1 nM-10 uM) (fraction (0-1)); higher = more sensitive
Description: as §2

[23] = system: HL-60; experiment: area under dose-response curve (viability, 1 nM-10 uM) (fraction (0-1)); higher = more sensitive
How it was run: as §3

Cn1cc(-c2ccncc2)c(-c2ccc(OCc3ccc4ccccc4n3)cc2)n1
cell viability [%]
Conditions | [1] | [2] | [3] | [4] | [5] | [6]
1 nM | 98.4 | 88.2 | 82.6 | 94.3 | 94.2 | 81
10 nM | 97 | 87 | 86.8 | 84.7 | 94.8 | 89.1
100 nM | > 100 | 87.9 | 86.7 | 97.6 | 98.5 | 93.4
1000 nM | 82.3 | 70.8 | 50.1 | 83.1 | 77.3 | 74.4
10000 nM | 87.9 | 53.5 | 43.4 | 75.2 | 80.2 | 83.6

Conditions | area under dose-response curve
[7] | 0.163
[8] | < 0.0301
[9] | < 0.0301
[10] | 0.067
[11] | 0.183
[12] | < 0.0301
[13] | < 0.0301
[14] | < 0.0301
[15] | 0.219
[16] | < 0.0301
[17] | 0.938
[18] | 0.309
[19] | < 0.0301
[20] | 0.694

CN1CCN(CCCN2c3ccccc3Sc3ccc(C(F)(F)F)cc32)CC1 [Trifluoperazine]
cell viability [%], [21]
Conditions | 0.001 µM | 0.01 µM | 0.1 µM | 1 µM | 10 µM
co-treatment: AZD3965 100 nM | 101 | 100 | 97.8 | 101 | 81.7
co-treatment: DMSO vehicle | 101.2 | 103 | 102 | 102 | 90.6
co-treatment: GSK2194069 100 nM | 94 | 101 | 96 | 101 | 70.4
co-treatment: pictilisib 100 nM | 97 | 95.9 | 108 | 97.2 | 47.7

cell viability [%]
Conditions | [1] | [2] | [3] | [4] | [5] | [6]
1 nM | 95.7 | 90.5 | 89.2 | 98.2 | > 100 | 80
10 nM | 89.5 | 90.8 | 85.5 | 91.9 | > 100 | 88.9
100 nM | 95.9 | 99.3 | 86.6 | > 100 | > 100 | 91.3
1000 nM | 87 | 56.4 | 26.5 | 78.4 | 75.6 | 69.8
10000 nM | 38.3 | 39.1 | 1.65 | 45.9 | 48.6 | 41.6

Conditions | area under dose-response curve
[7] | 0.362
[8] | 0.174
[9] | 0.0812
[10] | 0.182
[11] | 0.294
[12] | 0.102
[13] | 0.209
[14] | 0.108
[15] | 0.429
[16] | 0.162
[17] | 0.36
[18] | 0.517
[19] | 0.106
[20] | 0.423
[22] | 0.187

O=C(/C=C/c1ccc(O)c(O)c1)OCCc1ccccc1 [Caffeic acid phenethyl ester]
cell viability [%], [21]
Conditions | 0.001 µM | 0.01 µM | 0.1 µM | 1 µM | 10 µM
co-treatment: AZD3965 100 nM | 98.9 | 99.96 | 104 | 103 | 27.4
co-treatment: DMSO vehicle | 76 | 95.8 | 98.75 | 98.83 | 33.3
co-treatment: GSK2194069 100 nM | 93.3 | 100.7 | 102 | 97.1 | 33.1
co-treatment: pictilisib 100 nM | 101 | 102 | 96.7 | 81.5 | 22.1

Conditions | area under dose-response curve, co-treatment: AZD3965 100 nM | area under dose-response curve, co-treatment: DMSO vehicle | area under dose-response curve, co-treatment: GSK2194069 100 nM | area under dose-response curve, co-treatment: pictilisib 100 nM | cell viability, 1 nM [%] | cell viability, 10 nM [%] | cell viability, 100 nM [%] | cell viability, 1000 nM [%] | cell viability, 10000 nM [%]
[1] | – | – | – | – | > 100 | 95.5 | > 100 | 57.4 | 34.5
[2] | – | – | – | – | > 100 | 91 | 95.8 | 87.2 | 42
[3] | – | – | – | – | 95.7 | 83.5 | 80.5 | 48.9 | 16.3
[4] | – | – | – | – | 96.5 | 85.8 | 96.1 | 64.9 | 40.5
[5] | – | – | – | – | 95.4 | 98.6 | > 100 | 89.3 | 64
[6] | – | – | – | – | 97.7 | 80.9 | 85.1 | 29 | 5.61
[23] | 0.0691 | 0.0547 | 0.0593 | 0.138 | – | – | – | – | –

Conditions | area under dose-response curve
[7] | 0.539
[8] | 0.14
[9] | 0.201
[10] | 0.082
[11] | 0.242
[12] | 0.145
[13] | 0.155
[15] | 0.467
[16] | 0.328
[17] | 0.411
[18] | 0.323
[19] | 0.297
[20] | 0.563
[22] | 0.168

c1cc(-c2cnn3cc(-c4ccc(OCCN5CCCCC5)cc4)cnc23)ccn1 [Dorsomorphin]
cell viability [%], [21]
Conditions | 0.001 µM | 0.01 µM | 0.1 µM | 1 µM | 10 µM
co-treatment: AZD3965 100 nM | 101 | 101 | 99.7 | 99.9 | 56.2
co-treatment: DMSO vehicle | 99.8 | 102 | 99.9 | 95.21 | 63.4
co-treatment: GSK2194069 100 nM | 108 | 102 | 104 | 105 | 63.4
co-treatment: pictilisib 100 nM | 93.5 | 99.7 | 94.8 | 82.3 | 34

Conditions | area under dose-response curve, co-treatment: AZD3965 100 nM | area under dose-response curve, co-treatment: DMSO vehicle | area under dose-response curve, co-treatment: GSK2194069 100 nM | area under dose-response curve, co-treatment: pictilisib 100 nM | cell viability, 1 nM [%] | cell viability, 10 nM [%] | cell viability, 100 nM [%] | cell viability, 1000 nM [%] | cell viability, 10000 nM [%]
[1] | – | – | – | – | 98.5 | 97.1 | 98.5 | 92 | 91.6
[2] | – | – | – | – | 88.2 | 94.5 | 64.7 | 50.7 | 48.6
[3] | – | – | – | – | 48.1 | 100 | 53 | 84.5 | 60.8
[4] | – | – | – | – | 88.3 | 90.6 | 95.6 | 92.5 | 24.9
[5] | – | – | – | – | 95.8 | 99.8 | 92.5 | > 100 | 59.4
[6] | – | – | – | – | 77.5 | 99 | 92.6 | 81.6 | 68.6
[23] | 0.0329 | 0.0501 | < 0.0301 | 0.112 | – | – | – | – | –

Conditions | area under dose-response curve
[7] | 0.342
[8] | 0.106
[9] | < 0.0301
[10] | 0.195
[11] | < 0.0301
[12] | 0.0705
[13] | 0.142
[14] | < 0.0301
[15] | 0.0457
[16] | 0.182
[17] | 0.508
[18] | 0.0504
[20] | 0.488
[22] | < 0.0301
